Test results taken from ChEMBL document CHEMBL4765337, “Optical control of muscular nicotinic channels with azocuroniums, photoswitchable azobenzenes bearing two N-methyl-N-carbocyclic quaternary ammonium groups” (Eur J Med Chem, 2020).

Target: T1, Neuronal acetylcholine receptor subunit alpha-7 (Homo sapiens, UniProt P36544)
Assay: Displacement of [125I] alpha bungarotoxin from human neuronal alpha7 nAChR expressed in human SH-SY5Y cell membrane measured after 120 mins by Topcount scintillation counting method
Format: cell membranes
Conditions: not given

T1 sequence (P36544 whole entry): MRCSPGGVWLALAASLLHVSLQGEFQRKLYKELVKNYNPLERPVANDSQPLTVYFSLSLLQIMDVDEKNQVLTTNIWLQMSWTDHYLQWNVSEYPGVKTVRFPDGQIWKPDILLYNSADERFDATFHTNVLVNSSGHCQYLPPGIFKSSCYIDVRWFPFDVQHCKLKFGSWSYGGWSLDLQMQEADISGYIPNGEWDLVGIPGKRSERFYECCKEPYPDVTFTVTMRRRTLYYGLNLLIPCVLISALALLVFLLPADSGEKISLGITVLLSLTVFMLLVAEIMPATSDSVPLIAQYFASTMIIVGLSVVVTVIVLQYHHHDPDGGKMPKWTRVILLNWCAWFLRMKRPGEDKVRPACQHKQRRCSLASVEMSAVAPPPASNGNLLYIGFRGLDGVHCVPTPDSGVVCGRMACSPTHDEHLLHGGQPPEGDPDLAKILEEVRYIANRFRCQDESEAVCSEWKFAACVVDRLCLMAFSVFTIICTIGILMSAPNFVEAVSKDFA

SMILES	Ki
C[N+]1(Cc2ccc(/N=N/c3ccc(C[N+]4(C)CCCCC4)cc3)cc2)CCCCC1.[I-].[I-]	> 10000 nM
C[N+]1(Cc2cccc(/N=N/c3cccc(C[N+]4(C)CCCC4)c3)c2)CCCC1.[I-].[I-]	2500 nM
C[N+]1(Cc2ccc(/N=N/c3ccc(C[N+]4(C)CCCC4)cc3)cc2)CCCC1.[I-].[I-]	930 nM

Target: T2, Neuronal acetylcholine receptor; alpha4/beta2 (Homo sapiens, UniProt P17787+P43681)
T2 sequence (P17787 whole entry): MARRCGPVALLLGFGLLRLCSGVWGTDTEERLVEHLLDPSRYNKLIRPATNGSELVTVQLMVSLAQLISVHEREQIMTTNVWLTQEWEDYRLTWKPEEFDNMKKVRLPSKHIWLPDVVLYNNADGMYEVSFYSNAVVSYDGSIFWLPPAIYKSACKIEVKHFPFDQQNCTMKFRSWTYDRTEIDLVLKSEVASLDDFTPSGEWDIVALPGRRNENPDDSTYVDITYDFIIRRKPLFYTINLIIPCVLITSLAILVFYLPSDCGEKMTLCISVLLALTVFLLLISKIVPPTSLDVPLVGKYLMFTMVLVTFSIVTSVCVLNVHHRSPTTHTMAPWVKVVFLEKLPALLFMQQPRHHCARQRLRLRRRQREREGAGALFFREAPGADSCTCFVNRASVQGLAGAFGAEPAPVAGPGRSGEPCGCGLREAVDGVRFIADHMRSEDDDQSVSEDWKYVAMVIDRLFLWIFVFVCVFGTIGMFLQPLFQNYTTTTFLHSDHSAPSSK
T2 sequence (P43681 whole entry): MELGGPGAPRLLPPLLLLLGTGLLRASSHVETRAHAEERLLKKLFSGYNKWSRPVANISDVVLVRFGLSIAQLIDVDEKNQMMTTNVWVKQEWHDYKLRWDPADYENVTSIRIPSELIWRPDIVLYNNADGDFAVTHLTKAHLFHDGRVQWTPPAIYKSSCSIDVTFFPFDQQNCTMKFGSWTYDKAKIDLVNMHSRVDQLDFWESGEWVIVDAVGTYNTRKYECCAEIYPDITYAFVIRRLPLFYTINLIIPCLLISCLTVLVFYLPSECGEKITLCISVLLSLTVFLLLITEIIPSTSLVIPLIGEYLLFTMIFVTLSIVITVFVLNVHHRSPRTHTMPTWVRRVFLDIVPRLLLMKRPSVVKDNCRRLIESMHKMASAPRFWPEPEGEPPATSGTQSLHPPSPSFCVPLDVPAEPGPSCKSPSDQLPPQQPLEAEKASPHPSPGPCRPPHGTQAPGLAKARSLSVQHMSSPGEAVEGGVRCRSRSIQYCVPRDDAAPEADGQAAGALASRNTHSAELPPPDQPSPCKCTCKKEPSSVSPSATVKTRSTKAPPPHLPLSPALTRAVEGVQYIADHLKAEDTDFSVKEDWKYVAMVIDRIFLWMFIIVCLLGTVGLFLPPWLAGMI
Assay: Displacement of [125I] alpha bungarotoxin from human neuronal alpha4beta2 nAChR expressed in human SH-SY5Y cell membrane measured after 120 mins by Topcount scintillation counting method
Format: cell membranes
Conditions: not given

SMILES	Ki
C[N+]1(Cc2ccc(/N=N/c3ccc(C[N+]4(C)CCCCC4)cc3)cc2)CCCCC1.[I-].[I-]	1500 nM
C[N+]1(Cc2cccc(/N=N/c3cccc(C[N+]4(C)CCCC4)c3)c2)CCCC1.[I-].[I-]	> 10000 nM
C[N+]1(Cc2ccc(/N=N/c3ccc(C[N+]4(C)CCCC4)cc3)cc2)CCCC1.[I-].[I-]	> 10000 nM

Tested on: RAW264.7
Assay: Cytotoxicity against mouse RAW264.7 cells assessed as cell viability at 10 uM measured after 24 hrs by MTT assay
Format: cell-based
Conditions: raw264.7, 24 h

SMILES	Activity
C[N+]1(Cc2ccc(/N=N/c3ccc(C[N+]4(C)CCCCC4)cc3)cc2)CCCCC1.[I-].[I-]	Non-Toxic
C[N+]1(Cc2cccc(/N=N/c3cccc(C[N+]4(C)CCCC4)c3)c2)CCCC1.[I-].[I-]	Non-Toxic
C[N+]1(Cc2ccc(/N=N/c3ccc(C[N+]4(C)CCCC4)cc3)cc2)CCCC1.[I-].[I-]	Non-Toxic

Species: Homo sapiens
Assay: Selectivity index, ratio of Ki for human neuronal alpha4beta2 nAChR expressed in human SH-SY5Y cell membrane to Ki for human muscle type nAChR expressed in human TE-671 cell membrane
Format: cell-based
Conditions: not given

SMILES	Ratio Ki
C[N+]1(Cc2cccc(/N=N/c3cccc(C[N+]4(C)CCCC4)c3)c2)CCCC1.[I-].[I-]	> 240

Tested on: not listed separately
Assay: Displacement of [125I] alpha bungarotoxin from human muscle type nAChR expressed in human TE-671 cell membrane measured after 120 mins by Topcount scintillation counting method
Format: cell membranes
Conditions: not given

SMILES	Ki
C[N+]1(Cc2ccc(/N=N/c3ccc(C[N+]4(C)CCCCC4)cc3)cc2)CCCCC1.[I-].[I-]	1100 nM
C[N+]1(Cc2cccc(/N=N/c3cccc(C[N+]4(C)CCCC4)c3)c2)CCCC1.[I-].[I-]	42 nM
C[N+]1(Cc2ccc(/N=N/c3ccc(C[N+]4(C)CCCC4)cc3)cc2)CCCC1.[I-].[I-]	200 nM

Target: T1, Neuronal acetylcholine receptor subunit alpha-7
Assay: Displacement of [125I] alpha bungarotoxin from human neuronal alpha7 nAChR expressed in human SH-SY5Y cell membrane at 10 uM measured after 120 mins by Topcount scintillation counting method
Format: cell membranes
Conditions: not given

SMILES	inhibition
C[N+]1(Cc2ccc(/N=N/c3ccc(C[N+]4(C)CCCCC4)cc3)cc2)CCCCC1.[I-].[I-]	16%

Tested on: not listed separately
Assay: Thermodynamic solubility of the compound in aqueous phosphate buffer at pH 7.4 measured after 24 hrs by UV-spectra reader analysis
Format: physicochemical
Conditions: read-out: Therm_solubility

SMILES	solubility thermodynamic at 24 h
C[N+]1(Cc2ccc(/N=N/c3ccc(C[N+]4(C)CCCCC4)cc3)cc2)CCCCC1.[I-].[I-]	34.9 mM
C[N+]1(Cc2cccc(/N=N/c3cccc(C[N+]4(C)CCCC4)c3)c2)CCCC1.[I-].[I-]	36.3 mM
C[N+]1(Cc2ccc(/N=N/c3ccc(C[N+]4(C)CCCC4)cc3)cc2)CCCC1.[I-].[I-]	14.8 mM

Tested on: not listed separately
Assay: Effective permeability of compound measured after 240 mins by PAMPA-BBB assay based UV/Vis spectrophotometer analysis
Format: ADME
Conditions: read-out: Peff

SMILES	Papp at 4 h
C[N+]1(Cc2ccc(/N=N/c3ccc(C[N+]4(C)CCCCC4)cc3)cc2)CCCCC1.[I-].[I-]	< 1 ×10⁻⁶ cm/s
C[N+]1(Cc2cccc(/N=N/c3cccc(C[N+]4(C)CCCC4)c3)c2)CCCC1.[I-].[I-]	< 1 ×10⁻⁶ cm/s
C[N+]1(Cc2ccc(/N=N/c3ccc(C[N+]4(C)CCCC4)cc3)cc2)CCCC1.[I-].[I-]	< 1 ×10⁻⁶ cm/s

Target: T2, Neuronal acetylcholine receptor; alpha4/beta2
Assay: Displacement of [125I] alpha bungarotoxin from human neuronal alpha4beta2 nAChR expressed in human SH-SY5Y cell membrane at 10 uM measured after 120 mins by Topcount scintillation counting method
Format: cell membranes
Conditions: not given

SMILES	inhibition
C[N+]1(Cc2cccc(/N=N/c3cccc(C[N+]4(C)CCCC4)c3)c2)CCCC1.[I-].[I-]	31%

Same assay, conditions: filed as antagonist

SMILES	inhibition
C[N+]1(Cc2ccc(/N=N/c3ccc(C[N+]4(C)CCCC4)cc3)cc2)CCCC1.[I-].[I-]	45%

Tested on: Oocyte
Assay: Antagonist activity at rat alpha1beta1gamma1delta1 nAChR expressed in Xenopus laevis oocytes assessed as inhibition of ACh puff-induced maximum channel current amplitude by measuring current fraction ratio using UV LED light irradiated compound measured at holding potential of -60 mV by two-electrode voltage clamp technique
Format: cell-based
Conditions: not given

SMILES	Ratio
C[N+]1(Cc2cccc(/N=N\c3cccc(C[N+]4(C)CC=CCC4)c3)c2)CC=CCC1 (configuration not stated)	0.35

Species: Homo sapiens
Assay: Selectivity index, ratio of Ki for human neuronal alpha7 nAChR expressed in human SH-SY5Y cell membrane to Ki for human muscle type nAChR expressed in human TE-671 cell membrane
Format: cell-based
Conditions: not given

SMILES	Ratio Ki
C[N+]1(Cc2cccc(/N=N/c3cccc(C[N+]4(C)CCCC4)c3)c2)CCCC1.[I-].[I-]	60

Target: not listed separately
Assay: Antagonist activity at rat alpha1beta1gamma1delta1 nAChR expressed in Xenopus laevis oocytes assessed as inhibition of ACh puff-induced maximum channel current amplitude using UV LED light irradiated compound measured at holding potential of -60 mV by two-electrode voltage clamp technique
Format: cell-based
Conditions: oocyte

SMILES	Ki
C[N+]1(Cc2cccc(/N=N\c3cccc(C[N+]4(C)CCCCC4)c3)c2)CCCCC1	2600 nM
C[N+]1(Cc2cccc(/N=N\c3cccc(C[N+]4(C)CCCCCC4)c3)c2)CCCCCC1	2600 nM
C[N+]1(Cc2cccc(/N=N\c3cccc(C[N+]4(C)CC=CCC4)c3)c2)CC=CCC1 (configuration not stated)	880 nM
